Measurements as given in patent US20090143279A1 (priority 2007, published 2009).
Like-named read-outs stand apart in the source and are kept apart here.

Assays:
cytochrome c = assay type: cell-based, mouse; details: for cyt c (composite Z-score): normalized score vs mock-treated (DMSO) wells
C2C12 myotubes = details: for Viability (composite Z-score): normalized score vs mock-treated (DMSO) wells
OXPHOS gene expression = assay type: cell-based, mouse; details: for GE-HTS (composite Z-score): normalized score vs mock-treated (DMSO) wells
nuOXPHOS transcripts = assay type: cell-based, mouse; details: for nucOX (composite Z-score): normalized score vs mock-treated (DMSO) wells
mtOXPHOS transcripts = assay type: cell-based, mouse; details: for mitoOX (composite Z-score): normalized score vs mock-treated (DMSO) wells
[1] = system: cellular dehydrogenase activity; details: for MTT (composite Z-score): normalized score vs mock-treated (DMSO) wells
reactive oxygen species = assay type: cell-based, mouse; details: for ROS (composite Z-score): normalized score vs mock-treated (DMSO) wells
[2] = system: mitochondrial membrane potential; assay type: cell-based, mouse; details: for ΔΨm (composite Z-score): normalized score vs mock-treated (DMSO) wells
[3] = Table 4, C2C12 myotubes, 48 h, composite Z-score
[4] = composite Z-score vs mock-treated (DMSO) wells, concentration of each compound in μM
[5] = composite Z-score vs DMSO, Conc 20 μM
[6] = composite Z-score vs mock-treated (DMSO) wells, Conc 20 μM
[7] = composite Z-score vs DMSO wells, Conc 20 μM
[8] = 20 μM, composite Z-score vs DMSO

cytochrome c, sequence (P62897 whole entry): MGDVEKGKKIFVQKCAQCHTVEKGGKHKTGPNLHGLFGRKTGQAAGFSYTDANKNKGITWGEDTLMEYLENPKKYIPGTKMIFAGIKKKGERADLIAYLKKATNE

[O-][n+]1ccccc1[S-].[O-][n+]1ccccc1[S-].[Zn+2] [pyrithione zinc]
cyt c (composite Z-score vs DMSO) (cytochrome c): −4.773 | Viability (composite Z-score vs DMSO) (C2C12 myotubes): −5.339 | GE-HTS (composite Z-score vs DMSO) (OXPHOS gene expression): −3.250 | nucOX (composite Z-score vs DMSO) (nuOXPHOS transcripts): −4.140 | mitoOX (composite Z-score vs DMSO) (mtOXPHOS transcripts): −0.770 | MTT (composite Z-score vs DMSO) [1]: −6.284 | ROS (composite Z-score vs DMSO) (reactive oxygen species): −2.405 | ΔΨm (composite Z-score vs DMSO) [2]: −3.529

CCC(C)C(OC(C)=O)C(=O)O[C@H]1[C@H](O)[C@@H]2[C@@]3(C)C=CC(=O)C(C)(C)[C@@H]3C[C@@H](OC(=O)C(O)C(C)C)[C@@]2(C)[C@@]23O[C@@H]2C[C@@H](c2ccoc2)[C@]13C (stereo partly shown) [heudelottin C, reference compound]
cyt c (composite Z-score) (cytochrome c; Conc 20 μM): 0.156 | Viability (composite Z-score) (C2C12 myotubes; Conc 20 μM): −0.829 | Viability (C2C12 myotubes; [3]): −0.829 | GE-HTS (composite Z-score) (OXPHOS gene expression; Conc 20 μM): −0.524 | nucOX (composite Z-score) (nuOXPHOS transcripts; Conc 20 μM): −0.245 | mitoOX (composite Z-score) (mtOXPHOS transcripts; Conc 20 μM): −1.006 | MTT (composite Z-score) ([1]; Conc 20 μM): −0.393 | MTT [1, 3]: −0.393 | ROS (composite Z-score) (reactive oxygen species; Conc 20 μM): 0.576 | ROS (reactive oxygen species; [3]): 0.576 | ΔΨm (composite Z-score) ([2]; Conc 20 μM): 0.373 | ΔΨm ([2]; Table 4, C2C12 myotubes, 48 h, JC-1, composite Z-score): 0.373

CN1Cc2c(ccc3c2OCO3)[C@@H]2[C@H]1c1cc3c(cc1C[C@@H]2O)OCO3 [(+)-chelidonine]
cyt c (cytochrome c; [4]): −1.144 | Viability (C2C12 myotubes; [4]): −1.005 | GE-HTS (OXPHOS gene expression; [4]): 0.941 | nucOX (nuOXPHOS transcripts; [4]): 0.901 | mitoOX (mtOXPHOS transcripts; [4]): 0.836 | MTT [1, 4]: −1.988 | ROS (reactive oxygen species; [4]): −1.486 | ΔΨm [2, 4]: −1.123

O=C(O)CF [sodium fluoroacetate]
cyt c (cytochrome c; [5]): 0.653 | Viability (C2C12 myotubes; [5]): −0.906 | GE-HTS (OXPHOS gene expression; [5]): −0.009 | nucOX (nuOXPHOS transcripts; [5]): 0.206 | mitoOX (mtOXPHOS transcripts; [5]): −0.459 | MTT [1, 5]: −1.379 | ROS (reactive oxygen species; [5]): 0.613 | ΔΨm [2, 5]: −0.784

3beta-chloroandrostanone
cyt c (cytochrome c; [6]): 1.021 | Viability (C2C12 myotubes; [6]): −0.424 | GE-HTS (OXPHOS gene expression; [6]): −1.190 | nucOX (nuOXPHOS transcripts; [6]): −1.192 | mitoOX (mtOXPHOS transcripts; [6]): −0.907 | MTT [1, 6]: −1.203 | ROS (reactive oxygen species; [6]): −0.077 | ΔΨm [2, 6]: −0.860

COc1c(O)cccc1O [2-methoxyresorcinol]
cyt c (composite Z-score) (cytochrome c; Conc 20 μM): −0.146 | Viability (composite Z-score) (C2C12 myotubes; Conc 20 μM): 0.514 | GE-HTS (composite Z-score) (OXPHOS gene expression; Conc 20 μM): 0.218 | nucOX (composite Z-score) (nuOXPHOS transcripts; Conc 20 μM): −0.150 | mitoOX (composite Z-score) (mtOXPHOS transcripts; Conc 20 μM): 0.954 | MTT (composite Z-score) ([1]; Conc 20 μM): 0.266 | ROS (composite Z-score) (reactive oxygen species; Conc 20 μM): 0.864 | ΔΨm (composite Z-score) ([2]; Conc 20 μM): −0.536

CC(C)(Sc1cc(C(C)(C)C)c(O)c(C(C)(C)C)c1)Sc1cc(C(C)(C)C)c(O)c(C(C)(C)C)c1 [probucol]
cyt c (cytochrome c): −0.232 | cyt c (cytochrome c; [7]): −0.180 | Viability (C2C12 myotubes; [7]): −0.586 | GE-HTS (OXPHOS gene expression; [7]): −0.053 | nucOX (nuOXPHOS transcripts; [7]): −0.002 | mitoOX (mtOXPHOS transcripts; [7]): −0.136 | MTT [1, 7]: −1.114 | ROS (reactive oxygen species; [7]): 0.464 | ΔΨm [2, 7]: −0.142

O=C(Oc1cc(OC(=O)c2ccccc2)c2c(c1)O[C@H](c1ccc(OC(=O)c3ccccc3)c(OC(=O)c3ccccc3)c1)[C@@H](OC(=O)c1ccccc1)C2)c1ccccc1 [catechin pentabenzoate]
cyt c (composite Z-score) (cytochrome c; Conc 20 μM): 1.272 | Viability (composite Z-score) (C2C12 myotubes; Conc 20 μM): −1.434 | GE-HTS (composite Z-score) (OXPHOS gene expression; Conc 20 μM): −0.898 | nucOX (composite Z-score) (nuOXPHOS transcripts; Conc 20 μM): −0.815 | mitoOX (composite Z-score) (mtOXPHOS transcripts; Conc 20 μM): −0.896 | MTT (composite Z-score) ([1]; Conc 20 μM): −1.672 | ROS (composite Z-score) (reactive oxygen species; Conc 20 μM): 0.599 | ΔΨm (composite Z-score) ([2]; Conc 20 μM): −1.326

O=C(Nc1ccc([N+](=O)[O-])cc1Cl)c1cc(Cl)ccc1O [niclosamide]
cyt c (cytochrome c): −3.177 | cyt c (cytochrome c; [8]): −2.947 | Viability (C2C12 myotubes): −1.410 | Viability (C2C12 myotubes; [8]): −0.944 | GE-HTS (OXPHOS gene expression): −0.976 | GE-HTS (OXPHOS gene expression; [8]): −1.042 | nucOX (nuOXPHOS transcripts): −1.007 | nucOX (nuOXPHOS transcripts; [8]): −0.288 | mitoOX (mtOXPHOS transcripts): −0.755 | mitoOX (mtOXPHOS transcripts; [8]): −2.299 | MTT [1]: −3.816 | MTT [1, 8]: −0.296 | ROS (reactive oxygen species): −3.069 | ROS (reactive oxygen species; [8]): −3.862 | ΔΨm [2]: −3.700 | ΔΨm [2, 8]: −4.256
